Reference: PMC6256002 (British Journal of Clinical Pharmacology, 2018)
Where two headings read alike, the source gives them in different places. Marks after values point to notes of the source that are not given here. Each block holds one compound with its values, some of them ahead of it.

Experiments:
[1] = for Ae0–24 h (amount excreted in the urine over 24 h) / AUC(0-t) / CL renal / half-life / AUC0–24 h / CLR (renal clearance) / t½,λz (apparent terminal half-life) / Cmax: arithmetic mean (CV%); for AUC(0-t): AUC0–24 h; for CL renal: CLR (renal clearance); for half-life: t½,λz (apparent terminal half-life); for Time to steady state: predose (trough) concentrations, regardless of the age group; for R (metabolite-to-parent ratio, AUC0–24 h): geometric mean (CV%); for Cmax: filgotinib 100 mg QD 10 days, capsule, fed, N = 10
[2] = cited from earlier work; for Fraction excreted in the urine: in humans, filgotinib unchanged, metabolite as such
[3] = filgotinib 100 mg QD for 10 days
[4] = Effect of renal impairment; conditions: for Ae0–24 h (amount excreted in the urine over 24 h) / AUC(0-t) / CL renal / tmax / half-life / AUC0–24 h / CLR (renal clearance) / t½,λz (apparent terminal half-life) / R (metabolite-to-parent ratio, AUC0–24 h): 100 mg QD; for Ae0–24 h (amount excreted in the urine over 24 h) / AUC(0-t) / CL renal / half-life / AUC0–24 h / CLR (renal clearance) / t½,λz (apparent terminal half-life) / Cmax: arithmetic mean (CV%); for AUC(0-t): AUC0–24 h; for CL renal: CLR (renal clearance); for tmax: median (min–max); for half-life: t½,λz (apparent terminal half-life); for CLR lower (drop) compared with subjects with normal renal function: severe RI vs normal renal function; for R (metabolite-to-parent ratio, AUC0–24 h): geometric mean (CV%); for Cmax: filgotinib 100 mg QD 10 days, tablet, fasted
JAK1 = conditions: cited from earlier work
[5] = 100 mg QD, day 10, age 40–50 years
[6] = 100 mg QD, day 10, age 65–74 years
[7] = 100 mg QD, day 10, age 65–74 years, median (min–max)
[8] = 100 mg QD, day 10, age ≥75 years
[9] = 100 mg QD, day 10, age ≥75 years, median (min–max)
[10] = both, human, in vivo, 100 mg, 100 mg QD, day 10, age 40–50 years
[11] = both, human, in vivo, 100 mg, 100 mg QD, day 10, age 65–74 years
[12] = both, human, in vivo, 100 mg, 100 mg QD, day 10, age ≥75 years
[13] = ≥75 years relative to 40–50 years, point estimate [90% CI]
[14] = both, human, in vivo, 100 mg, day 10, mild RI
[15] = both, human, in vivo, 100 mg, day 10, moderate RI
[16] = both, human, in vivo, 100 mg, day 10, normal renal function
[17] = both, human, in vivo, 100 mg, day 10, severe RI

Ae0–24 h (amount excreted in the urine over 24 h) [1, 5]: 8.01 (26.5) ^b % dose
Ae0–24 h (amount excreted in the urine over 24 h) ([1]; 100 mg QD, day 10, age 40–50 years, listed as filgotinib): 8.01 % dose
Ae0–24 h (amount excreted in the urine over 24 h) [1, 6]: 6.55 (14.3) ^c % dose
Ae0–24 h (amount excreted in the urine over 24 h) ([1]; 100 mg QD, day 10, age 65–74 years, listed as filgotinib): 6.55 % dose
tmax [1, 7]: 2.0 (0.5–3.0) h
Ae0–24 h (amount excreted in the urine over 24 h) [1, 8]: 7.24 (16.9) ^b % dose
Ae0–24 h (amount excreted in the urine over 24 h) ([1]; 100 mg QD, day 10, age ≥75 years, listed as filgotinib): 7.24 % dose
tmax [1, 9]: 2.0 (0.5–3.0) h
tmax ([1]; both, human, in vivo, 100 mg): 2 h
AUC(0-t) [1, 10]: 1600 ng·h/mL
AUC(0-t) [1, 11]: 1790 ng·h/mL
AUC(0-t) [1, 12]: 2220 ng·h/mL
CL renal [1, 10]: 92.5 mL/min
CL renal [1, 11]: 65 mL/min
CL renal [1, 12]: 55.5 mL/min
half-life [1, 10]: 6.07 h
half-life [1, 11]: 5.83 h
half-life [1, 12]: 6.9 h
Time to steady state [1]: steady state by the second dosing day
Fold-change in steady-state AUC0–24 h [1, 13]: 1.40 fold
Ae0–24 h (amount excreted in the urine over 24 h) ([4]; day 10, mild RI): 5.37 (42.1) % dose
Ae0–24 h (amount excreted in the urine over 24 h) ([4]; day 10, moderate RI): 4.34 (51.2) % dose
Ae0–24 h (amount excreted in the urine over 24 h) ([4]; day 10, normal renal function): 7.61 (35.4) % dose
Ae0–24 h (amount excreted in the urine over 24 h) ([4]; day 10, severe RI): 2.08 (34) % dose
Steady state in plasma reached by ([4]; all renal function groups): ≤ 2 days
AUC(0-t) [4, 14]: 1890 ng·h/mL
AUC(0-t) [4, 15]: 2690 ng·h/mL
AUC(0-t) [4, 16]: 1820 ng·h/mL
AUC(0-t) [4, 17]: 2640 ng·h/mL
CL renal [4, 14]: 49.2 mL/min
CL renal [4, 15]: 31.5 mL/min
CL renal [4, 16]: 74.2 mL/min
CL renal [4, 17]: 15 mL/min
tmax ([4]; both, human, in vivo, 100 mg, tmax, day 10, moderate RI): 0.6 h
tmax ([4]; both, human, in vivo, 100 mg, tmax, day 10, normal renal function): 0.8 h
half-life [4, 15]: 10.6 h
half-life [4, 16]: 5.42 h
half-life [4, 17]: 9.03 h
Time after dosing at which Cmax was reached ([4]; day 10): 1 h
CLR lower (drop) compared with subjects with normal renal function [4]: 80%
SMILES: O=C(Nc1nc2cccc(-c3ccc(CN4CCS(=O)(=O)CC4)cc3)n2n1)C1CC1 [Filgotinib]
Impact of food on bioavailability [2]: no impact
Fraction excreted in the urine ([2]; no reference given): < 10%
Eliminated in urine (filgotinib and its metabolites) ([2]; no reference given): > 80%
Safety and tolerability [3]: generally safe and well tolerated
Selectivity for JAK1 over JAK2 (JAK1; in human whole blood): 30 times

AUC0–24 h [1, 5]: 29.4 (27.3) μg.h ml^–1
Ae0–24 h (amount excreted in the urine over 24 h) [1, 5]: 34.3 (22.3) ^b % dose
CLR (renal clearance) [1, 5]: 1.25 (19.3) ^b l h^–1
t½,λz (apparent terminal half-life) [1, 5]: 17.8 (17.9) h
Ae0–24 h (amount excreted in the urine over 24 h) ([1]; 100 mg QD, day 10, age 40–50 years, listed as metabolite): 34.3 % dose
R (metabolite-to-parent ratio, AUC0–24 h) [1, 5]: 18.8 (25.1)
tmax ([1]; 100 mg QD, day 10, age 40–50 years, median (min–max)): 4.0 (2.0–5.0) h
AUC0–24 h [1, 6]: 34.2 (17.3) μg.h ml^–1
Ae0–24 h (amount excreted in the urine over 24 h) [1, 6]: 37.4 (13.2) ^c % dose
CLR (renal clearance) [1, 6]: 1.13 (20.9) ^c l h^–1
t½,λz (apparent terminal half-life) [1, 6]: 24.7 (23.3) h
R (metabolite-to-parent ratio, AUC0–24 h) [1, 6]: 19.4 (22.0)
tmax [1, 7]: 3.0 (3.0–5.0) h
AUC0–24 h [1, 8]: 40.9 (21.9) μg.h ml^–1
Ae0–24 h (amount excreted in the urine over 24 h) [1, 8]: 37.6 (15.4) ^b % dose
CLR (renal clearance) [1, 8]: 0.926 (29.5) ^b l h^–1
t½,λz (apparent terminal half-life) [1, 8]: 23.5 (21.2) h
Ae0–24 h (amount excreted in the urine over 24 h) ([1]; 100 mg QD, day 10, age ≥75 years, listed as metabolite): 37.6 % dose
R (metabolite-to-parent ratio, AUC0–24 h) [1, 8]: 18.4 (16.4)
tmax [1, 9]: 5.0 (3.0–5.0) h
Cmax ([1]; day 10, age 40–50 years): 1.69 (26.5) μg ml^–1
Cmax ([1]; day 10, age 65–74 years): 1.90 (15.5) μg ml^–1
Cmax ([1]; day 10, age ≥75 years): 2.20 (19.4) μg ml^–1
Apparent elimination half-life across age groups ([1]; mean over the three age groups): approximately 22 h
Time to steady state [1]: ≤ 4 dosing days
Fold-change in steady-state AUC0–24 h [1, 13]: 1.33 fold
Fold-change in steady-state Cmax [1, 13]: 1.25 fold
AUC0–24 h ([4]; day 10, mild RI): 30.1 (29.3) μg.h ml^–1
Ae0–24 h (amount excreted in the urine over 24 h) ([4]; day 10, mild RI): 35.7 (40.3) % dose
CLR (renal clearance) ([4]; day 10, mild RI): 1.21 (42.1) l h^–1
t½,λz (apparent terminal half-life) ([4]; day 10, mild RI): 25.4 (24.8) h
R (metabolite-to-parent ratio, AUC0–24 h) ([4]; day 10, mild RI): 15.9 (22.0)
tmax ([4]; day 10, mild RI): 3.3 (1.5–5) h
AUC0–24 h ([4]; day 10, moderate RI): 42.7 (38.4) μg.h ml^–1
Ae0–24 h (amount excreted in the urine over 24 h) ([4]; day 10, moderate RI): 29.9 (24.1) % dose
CLR (renal clearance) ([4]; day 10, moderate RI): 0.781 (47.8) l h^–1
t½,λz (apparent terminal half-life) ([4]; day 10, moderate RI): 31.7 (24.9) h
R (metabolite-to-parent ratio, AUC0–24 h) ([4]; day 10, moderate RI): 16.7 (35.8)
tmax ([4]; day 10, moderate RI): 2.3 (0.5–5) h
AUC0–24 h ([4]; day 10, normal renal function): 24.9 (31.7) μg.h ml^–1
Ae0–24 h (amount excreted in the urine over 24 h) ([4]; day 10, normal renal function): 37.4 (11.6) % dose
CLR (renal clearance) ([4]; day 10, normal renal function): 1.59 (24.5) l h^–1
t½,λz (apparent terminal half-life) ([4]; day 10, normal renal function): 20.8 (17.1) h
R (metabolite-to-parent ratio, AUC0–24 h) ([4]; day 10, normal renal function): 13.8 (21.5)
tmax ([4]; day 10, normal renal function): 3 (2–4) h
AUC0–24 h ([4]; day 10, severe RI): 66.6 (18.5) μg.h ml^–1
Ae0–24 h (amount excreted in the urine over 24 h) ([4]; day 10, severe RI): 32.1 (9.36) % dose
CLR (renal clearance) ([4]; day 10, severe RI): 0.488 (10.6) l h^–1
t½,λz (apparent terminal half-life) ([4]; day 10, severe RI): 43.6 (12.6) h
R (metabolite-to-parent ratio, AUC0–24 h) ([4]; day 10, severe RI): 26.0 (20.4)
tmax ([4]; day 10, severe RI): 3 (3–4) h
Cmax ([4]; day 10, mild RI, N = 6): 1.54 (31.3) μg ml^–1
Cmax ([4]; day 10, moderate RI, N = 6): 2.35 (35.4) μg ml^–1
Cmax ([4]; day 10, normal renal function, N = 9): 1.63 (31.9) μg ml^–1
Cmax ([4]; day 10, severe RI, N = 3): 3.43 (14.6) μg ml^–1
CLR drop compared with subjects with normal renal function ([4]; moderate RI vs normal renal function): 51%
Steady-state plasma concentrations reached ([4]; moderate and severe RI): 5 days
Steady-state plasma concentrations reached ([4]; normal renal function and mild RI): 3 days
CLR lower (drop) compared with subjects with normal renal function [4]: 69%
SMILES: Nc1nc2cccc(-c3ccc(CN4CCS(=O)(=O)CC4)cc3)n2n1 [Metabolite]
Fraction excreted in the urine ([2]; no reference given): ≥ 50%
Reduced potency versus filgotinib (JAK1; human whole-blood assay): 19 fold
